Source: patent US20260183297A1, “SELECTION OF PATIENTS FOR THE TREATMENT OF FADS1-MEDIATED DISEASES OR DISORDERS USING FADS-1 INHIBITORS” (AMGEN INC., priority 2022, published 2026)

Columns and labels:
mouse FADS1 = molecular target: T1, mouse FADS1 (Mus musculus, UniProt Q920L1); assay: Mouse FADS1 cell-based assay; conditions: in vitro mouse FADS1 activity assay
T1 sequence (Q920L1 1-447): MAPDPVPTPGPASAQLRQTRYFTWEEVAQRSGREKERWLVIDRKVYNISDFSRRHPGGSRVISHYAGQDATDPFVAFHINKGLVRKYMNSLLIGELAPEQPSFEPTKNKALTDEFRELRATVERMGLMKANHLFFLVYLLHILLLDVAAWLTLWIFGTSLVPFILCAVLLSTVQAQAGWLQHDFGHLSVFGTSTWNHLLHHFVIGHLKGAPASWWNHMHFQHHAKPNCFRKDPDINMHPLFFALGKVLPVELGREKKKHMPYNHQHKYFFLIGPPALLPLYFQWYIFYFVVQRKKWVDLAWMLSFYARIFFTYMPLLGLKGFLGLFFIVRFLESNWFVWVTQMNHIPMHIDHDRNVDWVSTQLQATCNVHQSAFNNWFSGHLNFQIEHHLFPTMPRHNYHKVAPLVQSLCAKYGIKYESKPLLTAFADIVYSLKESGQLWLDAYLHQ
Protocol: (§1) HEK 293 cells in Dulbecco's Modified Eagle's medium (DMEM), 10% fetal bovine serum (FBS), 1× penicillin-streptomycin-glutamine (PSG) were mixed with FADS1 BacMam or FADS2 BacMam reagents at multiplicity of infection (MOI) ratio of 25 and plated in a in 96-well poly-D-lysine-coated plate. Plates were incubated in a 37° C., 5% CO2 for 24 hours. Cells were washed with DPBS and cells were incubated with […] of compound dilution in DPBS at 5% CO2, 37° C. for 20 minutes. Ten L of the substrate, ^13C5-DGLA (FADS1), or 13C-LA (FADS2) diluted in DPBS were added to the cells and incubated at 5% CO2, 37° C. for 30 minutes (FADS1) or 45 minutes (FADS2). Cells were then washed with DPBS and 50 μL of 2N NaOH were added to each well and incubated in a 65° C. oven for 1 hour for the saponification reaction. After cooling to room temperature, 22 μl of formic acid was added followed by the addition of 113 μl of acetonitrile with 1.5 μM ALA-d14 as the internal standard. Samples were then subjected to LC-MS/MS detection for the following analytes for the FADS1 reaction: ^13C5-DGLA and ^13C5-AA or the following analytes for the FADS2 reaction: ^13C18-LA, ^13C18-GLA, ^13C18-DGLA and ^13C18-AA. […]
(§2) The analyte peak areas were quantified by using the Analyst software (SCIEX, Framingham, MA). The percent of substrate to product conversion relative to untreated control were calculated (percent of control [POC]). […]

FADS2 = molecular target: T2, FADS2 (Mus musculus, UniProt Q9Z0R9); assay: FADS2 inhibition by SC-26196 in DIO mice, plasma PUFA ratios; type: in vivo
T2 construct: from tissue; host or cells: living DIO mice; plasma GLA/LA and AA/DGLA ratios
T2 sequence (Q9Z0R9 1-444): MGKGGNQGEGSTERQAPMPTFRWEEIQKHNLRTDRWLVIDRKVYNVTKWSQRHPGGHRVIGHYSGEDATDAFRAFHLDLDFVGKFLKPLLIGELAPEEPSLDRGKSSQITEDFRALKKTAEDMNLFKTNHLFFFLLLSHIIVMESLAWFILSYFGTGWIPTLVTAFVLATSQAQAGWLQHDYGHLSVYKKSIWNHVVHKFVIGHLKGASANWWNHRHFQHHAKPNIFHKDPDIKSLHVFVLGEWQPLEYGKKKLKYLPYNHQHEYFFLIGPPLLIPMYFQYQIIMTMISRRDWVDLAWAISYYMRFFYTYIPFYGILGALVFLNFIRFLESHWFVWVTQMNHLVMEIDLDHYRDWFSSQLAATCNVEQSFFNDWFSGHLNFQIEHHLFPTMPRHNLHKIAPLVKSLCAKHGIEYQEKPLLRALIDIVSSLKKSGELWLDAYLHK
Protocol: FIG. 12 One-way ANOVA with Dunnett's test for multiple comparisons, *P<0.05, **P<0.01, ***P<0.001, ****P<0.0001.
Ten microliter of plasma or PUFA standards diluted in surrogate matrix (60 g/l bovine serum albumin in Dulbecco's phosphate-buffered saline [DPBS]) were mixed with 10 μl of ALA-d14 as the internal stand in a 96-well plate. 100 μl of 2N NaOH was added to the mixture for subsequent saponification at 65° C. for 1 hour. The mixture was then acidified with 50 μl of formic acid followed by two consecutive 500 μl hexane extractions. The organic extracts from the two extractions were combined and the solvent was evaporated under nitrogen gas. Extracts were then resuspended in 250 μl of 90% methanol and analyzed by liquid chromatography with tandem mass spectrometry (LC-MS/MS) for the following PUFAs: LA, GLA, DGLA, and AA, with ALA-d14 as the internal standard. The PUFA peak areas were quantified by using the Analyst software (SCIEX, Framingham, MA).

human FADS1 = molecular target: T3, human FADS1 (Homo sapiens, UniProt O60427); assay: In vitro FADS1 activity assay (HEK 293 cells with FADS1 BacMam, 13C5-DGLA substrate); type: cell-based; conditions: in vitro human FADS1 activity assay
T3 construct: expressed in transfected cells; host or cells: HEK 293 cells transduced with FADS1 BacMam (MOI 25)
T3 sequence (O60427 whole entry): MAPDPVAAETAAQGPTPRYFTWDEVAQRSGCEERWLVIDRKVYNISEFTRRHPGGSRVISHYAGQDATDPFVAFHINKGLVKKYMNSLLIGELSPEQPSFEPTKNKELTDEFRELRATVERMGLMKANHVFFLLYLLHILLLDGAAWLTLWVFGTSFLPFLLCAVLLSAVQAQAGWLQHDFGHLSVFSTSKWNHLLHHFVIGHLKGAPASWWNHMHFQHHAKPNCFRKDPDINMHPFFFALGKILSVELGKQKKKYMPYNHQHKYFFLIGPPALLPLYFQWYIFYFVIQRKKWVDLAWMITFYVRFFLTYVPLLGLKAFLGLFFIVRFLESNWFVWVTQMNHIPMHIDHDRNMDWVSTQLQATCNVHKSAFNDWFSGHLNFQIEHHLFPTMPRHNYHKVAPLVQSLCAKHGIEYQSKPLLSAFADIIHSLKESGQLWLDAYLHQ
Protocol: HEK 293 cells in Dulbecco's Modified Eagle's medium (DMEM), 10% fetal bovine serum (FBS), 1× penicillin-streptomycin-glutamine (PSG) were mixed with FADS1 BacMam or FADS2 BacMam reagents at multiplicity of infection (MOI) ratio of 25 and plated in a in 96-well poly-D-lysine-coated plate. Plates were incubated in a 37° C., 5% CO2 for 24 hours. Cells were washed with DPBS and cells were incubated with 90 ml of compound dilution in DPBS at 5% CO2, 37° C. for 20 minutes. Ten L of the substrate, ^13C5-DGLA (FADS1), or 13C-LA (FADS2) diluted in DPBS were added to the cells and incubated at 5% CO2, 37° C. for 30 minutes (FADS1) or 45 minutes (FADS2). Cells were then washed with DPBS and 50 μL of 2N NaOH were added to each well and incubated in a 65° C. oven for 1 hour for the saponification reaction. […] Samples were then subjected to LC-MS/MS detection for the following analytes for the FADS1 reaction: ^13C5-DGLA and ^13C5-AA or the following analytes for the FADS2 reaction: ^13C18-LA, ^13C18-GLA, ^13C18-DGLA and ^13C18-AA. Samples were injected onto a Poroshell 120 EC-C18 3.0×50 mm, 1.9 um id column (Agilent, Santa Clara, CA).

human FADS2 = molecular target: T4, human FADS2 (Homo sapiens, UniProt O95864); assay: In vitro FADS2 activity assay (HEK 293 cells with FADS2 BacMam, 13C-LA substrate); type: cell-based
T4 construct: expressed in transfected cells; host or cells: HEK 293 cells transduced with FADS2 BacMam (MOI 25)
T4 sequence (O95864 1-444): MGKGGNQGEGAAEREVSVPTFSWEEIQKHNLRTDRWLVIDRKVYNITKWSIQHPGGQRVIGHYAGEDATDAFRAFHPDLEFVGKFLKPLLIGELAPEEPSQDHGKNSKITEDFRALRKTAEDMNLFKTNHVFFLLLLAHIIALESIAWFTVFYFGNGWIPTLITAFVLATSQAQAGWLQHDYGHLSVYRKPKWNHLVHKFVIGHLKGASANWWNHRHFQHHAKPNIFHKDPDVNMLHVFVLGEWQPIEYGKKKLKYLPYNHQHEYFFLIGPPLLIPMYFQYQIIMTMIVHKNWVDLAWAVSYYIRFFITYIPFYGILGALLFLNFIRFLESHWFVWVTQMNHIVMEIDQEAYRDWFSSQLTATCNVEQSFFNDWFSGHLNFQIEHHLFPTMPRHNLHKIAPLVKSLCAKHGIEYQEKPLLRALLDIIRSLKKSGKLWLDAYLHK
Protocol: as §1, §2

N#CC(CCCN1CCN(/N=C/c2cccnc2)CC1)(c1ccccc1)c1ccccc1 [SC-26196]
effect on FADS1 activity (mouse FADS1): does not affect FADS1 activity
plasma AA/DGLA ratio (FADS2): increased
plasma GLA/LA ratio (FADS2): affects
effect on FADS1 activity (human FADS1): does not affect FADS1 activity
effect on FADS2 activity (human FADS2): FADS2 specific inhibitor
